Measurements published in publication PMC9550238, “Novel TRKB agonists activate TRKB and downstream ERK and AKT signaling to protect Aβ-GFP SH-SY5Y cells against Aβ toxicity” (Aging (Albany NY), 2022).
Where two headings read alike, the source gives them in different places.

Tests used:
in vitro = in vitro ADME
Experimental: The permeability of LMDS-1 and -2 was determined by a PAMPA-BBB assay. Firstly, 300 μl of LMDS-1 or -2 (1 μM) solution were added to the donor well (Millipore). Bupropion (a high permeability marker), piroxicam (a low permeability marker), and lucifer yellow (an integrity marker) (Sigma-Aldrich) were used as quality control (QC) compounds for comparison. The sandwich with aqueous donor on the bottom, artificial lipid membrane (PVDF filter coated with porcine polar brain lipid) in the middle, and aqueous acceptor (5% DMSO in PBS) on the top was assembled as stated. Each compound was tested in triplicate. After incubation for 18 h at the ambient temperature, the PAMPA sandwich plate was separated. The concentrations of test and QC compounds in the donor and acceptor wells were measured as stated, and the effective permeability coefficient (Pe) was computed.

Aβ42 peptide = target: T1, Aβ42 peptide (Homo sapiens, UniProt P05067); assay: Thioflavin T Aβ aggregation inhibition assay; format: biochemical; conditions: Aβ42, compounds 5–20 μM
T1 construct: assessed by using Aβ42 peptide (AnaSpec, Fremont, CA, USA); purchased AnaSpec
T1 sequence (P05067 672-713 limits assumed): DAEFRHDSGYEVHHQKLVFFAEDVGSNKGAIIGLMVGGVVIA
Experimental: (§1) Thioflavin T is widely used to visualize and quantify the presence of misfolded amyloid protein aggregates in vitro [59]. […] In addition, DPPH radical (Sigma-Aldrich) was used to assay the free radical scavenging capacity of kaempferol, LM-031 and analogs (10–160 μM) as stated.

Aβ-GFP SH-SY5Y cells [1] = assay: Aβ folding reporter GFP fluorescence; format: cell-based, Human; conditions: for intensity of GFP fluorescence: untreated cells 100%; for EC50: Homo sapiens, 144 h, Aβ-GFP SH-SY5Y cells, compounds 1.2–5 μM, Dox 6 days, read-out: Aβ aggregation inhibition EC50 (GFP fluorescence)
Experimental: Human neuroblastoma SH-SY5Y-derived Aβ-GFP cells were maintained as stated. The recombinant Aβ-GFP protein has a 12 amino acid-containing linker between the fused Aβ and GFP. Doxycycline (5 μg/ml; Sigma-Aldrich) was used to induce Aβ-GFP expression.
Neuronal differentiation of Aβ-GFP SH-SY5Y cells was induced by retinoic acid (10 μM; Sigma-Aldrich). Cells on 96-well plate (2.5 × 10^4/well) were seeded on day 1, pre-treated with test compounds (1.2–5 μM) plus induced Aβ-GFP expression (5 μg/ml doxycycline) on day 2, and stained with Hoechst 33342 (0.1 μg/ml; Sigma-Aldrich) on day 8 as stated. Cell images were then captured at 482 nm excitation/536 nm emission wavelengths (ImageXpress Micro Confocal high-content system) and analyzed (MetaXpress image acquisition and analysis software) (Molecular Devices, Sunnyvale, CA, USA). In addition, ROS was quantified on day 8 following CellROX Deep Red stain (5 μM; Molecular Probes, Waltham, MA, USA) using the high-content system with excitation/emission wavelengths of 644/665 nm.

[2] = DPPH free radical scavenging assay; format: biochemical; conditions: compounds 10–160 μM
Experimental: as §1

Aβ-GFP SH-SY5Y cells [3] = assay: Neurite outgrowth analysis; format: cell-based, Human; conditions: 5 μM; induced untreated 3.0, uninduced 3.9
Experimental: (§2) As stated, Aβ-GFP SH-SY5Y cells were seeded (6 × 10^4/24-well) with retinoic acid addition on day 1, treated with tested compounds (5 μM) plus induced Aβ-GFP expression (5 μg/ml doxycycline) on day 2, and stained with TUBB3 (tubulin beta 3 class III) primary antibody (1:1000; Covance #MMS-435P, Princeton, NJ, USA), goat anti-rabbit Alexa Fluor® 555 secondary antibody (1:1000; Thermo Fisher Scientific #A27039), and DAPI (4′-6-diamidino-2-phenylindole, 0.1 μg/ml; Sigma-Aldrich) on day 8 [60]. Neuronal pictures were taken using the high-content system and analyzed for neurite length (μm), process (number of neurites protruding from neuronal cell body) and branch (number of neurites extending from process) (MetaXpress neurite outgrowth application module; Molecular Devices). In each of three independent experiments, roughly 6000 cells from each sample were examined.

Aβ-GFP SH-SY5Y cells [4] = assay: TRKB RNA interference, neurite outgrowth; format: cell-based, Human; conditions: 5 μM
Experimental: as §2
To knock down TRKB expression in Aβ-GFP SH-SY5Y cells, lentiviral short hairpin RNA (shRNA) targeting TRKB and control (scrambled) were used. Cells were plated in the presence of retinoic acid (5 × 10^5/6-well for protein analysis or 6 × 10^4/24-well for neurite outgrowth analysis) on day 1, infected with lentivirus on day 2, pretreated with test compound (5 μM) plus inducing Aβ-GFP expression on day 3, and collected for neurite outgrowth or TRKB protein analysis on day 9 as stated.

[5] = parameters: method as in PMID 32496635; conditions: cited from earlier work
Aβ-GFP SH-SY5Y cells [6] = assay: Comparison of BDNF and LMDS compounds on TRKB signaling, immunoblot; format: cell-based, Human; conditions: for p-CREB: induced untreated 42%; for p-ERK: induced untreated 64%; for p-AKT: induced untreated 65%
Experimental: (§3) Total proteins from Aβ-GFP SH-SY5Y cells were prepared, quantified, electrophoretically separated and blotted as stated. Following blocking, the membrane was probed with antibody against BDNF (1:500; Santa Cruz Biotechnology #sc-546, Santa Cruz, CA, USA), BCL2 (1:200; Santa Cruz Biotechnology #sc-7382), BAX (1:200; Santa Cruz Biotechnology #sc-7480), TRKB (1:500; Cell Signaling Technology #4603, Danvers, MA, USA), p-TRKB (Y516) (1:200; GeneTex #GTX32230, Irvine, CA, USA), p-TRKB (Y816) (1:1000; Millipore #ABN1381, Billerica, MA, USA), ERK (1:1000; Cell Signaling Technology #9102), p-ERK (T202/Y204) (1:1000; Cell Signaling Technology #9101), AKT (1:1000; Abcam #ab126811, Cambridge, CB, UK), p-AKT (S473) (1:1000; Cell Signaling Technology #4060), CREB (1:500; Santa Cruz Biotechnology #sc-186), p-CREB (S133) (1:1000; Millipore #06-519), or loading control GAPDH (glyceraldehyde-3-phosphate dehydrogenase) (1:1000; MDBio #30000002, Taipei, Taiwan). The immune complexes were detected as stated.

Aβ-GFP SH-SY5Y cells [7] = assay: ERK/PI3K kinase inhibitor treatment, immunoblot of TRKB downstream targets; format: cell-based, Human; conditions: 5 μM; induced untreated 61–64%
Aβ-GFP SH-SY5Y cells [8] = assay: as above; format: cell-based, Human
Experimental: Cells were plated in the presence of retinoic acid (5 × 10^5/6-well) on day 1, treated with tested compounds (5 μM) plus induced Aβ-GFP expression with doxycycline (5μg/ml) on day 2, as stated. Kinase inhibitors U0126 (an inhibitor of ERK) or wortmannin (an inhibitor of PI3K) (LC Laboratories, Woburn, MA, USA) (10 μM) were added on day 6. The cells were collected on day 8 for BDNF, BCL2, BAX, total/phosphorylated TRKB, ERK, AKT, and CREB protein analysis as previously stated.
as §3

[9] = 5 μM plus U0126 or wortmannin 10 μM
[10] = 5 μM, no kinase inhibitor, induced untreated 70–71%

## CC(NC(C)(C)C)C(=O)c1cccc(Cl)c1 (stereo not shown) [Bupropion, bupropion, reference compound]
In vitro; PAMPA
  Papp at 18 h, 1 μM: 17.1 ± 1.09 ×10⁻⁶ cm/s

## O=c1ccc2ccccc2o1 [Coumarin, coumarin, reference compound]
Aβ42 peptide
  EC50: 25 µM
Aβ-GFP SH-SY5Y cells [1]; 1.2–5 μM
  intensity of GFP fluorescence: 113–140%
Aβ-GFP SH-SY5Y cells [1]
  EC50: 9.8 µM
[2]
  EC50: 179 µM

## COc1cc(/C=C/C(=O)CC(=O)/C=C/c2ccc(O)c(OC)c2)ccc1O [Curcumin, curcumin, reference compound]
Aβ-GFP SH-SY5Y cells [3]
  neurite process: 3.7–3.8
Aβ-GFP SH-SY5Y cells [1]; 2.5–5 μM
  intensity of GFP fluorescence: 113–140%
Aβ-GFP SH-SY5Y cells [1]
  EC50: 6.1 µM

## O=c1c(O)c(-c2ccc(O)cc2)oc2cc(O)cc(O)c12 [Kaempferol, kaempferol, reference compound]
[2]
  EC50: 28 µM

## O=C(c1ccccc1)c1cc2c(O)cccc2oc1=O [LM-031, 3-benzoyl-5-hydroxychromen-2-one]
Aβ42 peptide
  EC50: 9 µM
Aβ-GFP SH-SY5Y cells [4]; scrambled shRNA, induced untreated 2.6
  neurite process: 3.8
Aβ-GFP SH-SY5Y cells [4]; shRNA targeting TRKB
  neurite process: 2.5
[5]; PAMPA-BBB
  Measured Pe: 4.80 ± 0.12 10^−6 cm/s
[5]; from Pe of ref 34
  PAMPA-BBB classification: BBB^+ (high)
Aβ-GFP SH-SY5Y cells [3]
  neurite process: 3.7–3.8
Aβ-GFP SH-SY5Y cells [1]; 1.2–5 μM
  intensity of GFP fluorescence: 111–149%
Aβ-GFP SH-SY5Y cells [1]
  EC50: 5.9 µM
[2]
  EC50: 104 µM

## CCOc1ccc2cc(C(=O)c3ccccc3)c(=O)oc2c1 [LMDS-1]
Aβ-GFP SH-SY5Y cells [6]; 5 μM
  p-CREB: 85–97%
  p-ERK: 94–111%
  p-AKT: 115–118%
Aβ42 peptide
  EC50: < 5 µM
Aβ-GFP SH-SY5Y cells [7]
  p-TRKB Y516 and Y817: 113–123%
Aβ-GFP SH-SY5Y cells [8]; 5 μM plus U0126 10 μM
  p-ERK level: 38–43%
Aβ-GFP SH-SY5Y cells [8]; [9]
  BAX: 152–191%
  BCL2: 80–121%
  p-CREB: 52–84%
  pro- and m-BDNF: 65–88%
Aβ-GFP SH-SY5Y cells [8]; 5 μM, induced untreated 44%
  BCL2: 156–199%
Aβ-GFP SH-SY5Y cells [8]; 5 μM, induced untreated 66%
  p-CREB: 127–142%
Aβ-GFP SH-SY5Y cells [8]; 5 μM, induced untreated 68–52%
  pro- and m-BDNF: 100–169%
Aβ-GFP SH-SY5Y cells [8]; 5 μM, induced untreated 225%
  BAX: 121–130%
Aβ-GFP SH-SY5Y cells [8]; [10]
  p-AKT level: 110–111%
  p-ERK level: 115%
Aβ-GFP SH-SY5Y cells [1]; 1.2–5 μM
  intensity of GFP fluorescence: 111–149%
Aβ-GFP SH-SY5Y cells [1]
  EC50: 6 µM
[2]
  EC50: 117 µM
In vitro
  PAMPA-BBB classification: BBB^+ (high)
In vitro; PAMPA
  Papp at 18 h, 1 μM: 14.9 ± 3.61 ×10⁻⁶ cm/s

## O=C(c1ccccc1)c1cc2ccc(O)cc2oc1=O [LMDS-2]
Aβ-GFP SH-SY5Y cells [6]; 5 μM
  p-CREB: 85–97%
  p-ERK: 94–111%
  p-AKT: 115–118%
Aβ42 peptide
  EC50: 18 µM
Aβ-GFP SH-SY5Y cells [7]
  p-TRKB Y516 and Y817: 113–123%
Aβ-GFP SH-SY5Y cells [8]; 5 μM plus U0126 10 μM
  p-ERK level: 38–43%
Aβ-GFP SH-SY5Y cells [8]; [9]
  BAX: 152–191%
  BCL2: 80–121%
  p-CREB: 52–84%
  pro- and m-BDNF: 65–88%
Aβ-GFP SH-SY5Y cells [8]; 5 μM, induced untreated 44%
  BCL2: 156–199%
Aβ-GFP SH-SY5Y cells [8]; 5 μM, induced untreated 66%
  p-CREB: 127–142%
Aβ-GFP SH-SY5Y cells [8]; 5 μM, induced untreated 68–52%
  pro- and m-BDNF: 100–169%
Aβ-GFP SH-SY5Y cells [8]; 5 μM, induced untreated 225%
  BAX: 121–130%
Aβ-GFP SH-SY5Y cells [8]; [10]
  p-AKT level: 110–111%
  p-ERK level: 115%
Aβ-GFP SH-SY5Y cells [1]; 1.2–5 μM
  intensity of GFP fluorescence: 111–149%
Aβ-GFP SH-SY5Y cells [1]
  EC50: 7.5 µM
[2]
  EC50: 146 µM
In vitro
  PAMPA-BBB classification: BBB^+ (moderate)
In vitro; PAMPA
  Papp at 18 h, 1 μM: 3.81 ± 0.13 ×10⁻⁶ cm/s

## COc1ccc2cc(C(=O)c3ccccc3)c(=O)oc2c1 [LMDS-3]
Aβ42 peptide
  EC50: 14 µM
Aβ-GFP SH-SY5Y cells [1]; 2.5–5 μM
  intensity of GFP fluorescence: 111–149%
Aβ-GFP SH-SY5Y cells [1]
  EC50: 11 µM
[2]
  EC50: 167 µM
In vitro
  PAMPA-BBB classification: BBB^+ (high)
In vitro; PAMPA
  Papp at 18 h, 1 μM: 11.8 ± 4.11 ×10⁻⁶ cm/s

## CC(=O)Oc1ccc2cc(C(=O)c3ccccc3)c(=O)oc2c1 [LMDS-4]
Aβ42 peptide
  EC50: < 5 µM
Aβ-GFP SH-SY5Y cells [1]; 1.2–5 μM
  intensity of GFP fluorescence: 111–149%
Aβ-GFP SH-SY5Y cells [1]
  EC50: 7.2 µM
[2]
  EC50: 116 µM
In vitro; PAMPA
  recovery at 18 h, 1 µM: 12.7%

## CN1C(C(=O)Nc2ccccn2)=C(O)c2ccccc2S1(=O)=O [Piroxicam, piroxicam, reference compound]
In vitro; PAMPA
  Papp at 18 h, 1 μM: 1.65 ± 0.17 ×10⁻⁶ cm/s

## lucifer yellow [reference compound]
In vitro; PAMPA
  % transport: 0.00 (% Transport)

B1: BDNF: Brain-derived neurotrophic factor, a neurotrophic factor binding TRKB (protein, UniProt P23560 19-247, looked up)
Neurotrophic factor BDNF …: APMKEANIRGQGGLAYPGVRTHGTLESVNGPKAGSRGLTSLADTFEHVIEELLDEDQKVRPNEENNKDADLYTSRVMLSSQVPLEPPLLFLLEEYKNYLDAANMSMRVRRHSDPARRGELSVCDSISEWVTAADKKTAVDMSGGTVTVLEKVPVSKGQLKQYFYETKCNPMGYTKEGCRGIDKRHWNSQCRTTQSYVRALTMDSKKRIGWRFIRIDTSCVCTLTIKRGR
Aβ-GFP SH-SY5Y cells [6]; 100 ng/ml
  p-CREB: 85–97%
  p-ERK: 94–111%
  p-AKT: 115–118%
